Molecules are shown by their SMILES.

The test system of one series is 4T1. Briefly: MTS cell viability assay (4T1). The series is classed as cell-based. The following applies: Mus musculus, 4T1 cells.
Series [1] has as its system MDA-MB-231 human breast cancer cells. Put plainly: MTS cell viability assay (MDA-MB-231). The following applies: folate-receptor-positive MDA-MB-231 cells. The series is classed as cell-based.
The conditions of series [2]: in vivo; cited from earlier work.

Consider `COCCOCCOCCOc1ccc2c(c1)C(C)=[N+]1c3ccc(C(=O)NCCN=[N+]=[N-])cc3O[B-]1([C@H](CC(C)C)NC(=O)[C@@H](Cc1ccccc1)NC(=O)c1cnccn1)O2` (stereo partly shown) [B-complex 7], for which the IC50 was 0.67 µM with 4T1 and greater than 0.1 µM in series [1] (Homo sapiens).

In series [1], `COCCOCCOCCOc1ccc2c(c1)C(C)=[N+]1c3ccc(C(=O)NCCn4nnc5c4CC[C@H]4[C@@H](CC5)[C@H]4COC(=O)NCCNC(=O)CCC(NC(=O)c4ccc(NCc5cnc6nc(N)[nH]c(=O)c6n5)cc4)C(=O)O)cc3O[B-]1([C@H](CC(C)C)NC(=O)[C@@H](Cc1ccccc1)NC(=O)c1cnccn1)O2` (stereo partly shown) [B-complex 8] yielded an IC50 of 0.0675 µM. This lies in the double-digit nanomolar range.

In the case of `CC1=[N+]2c3ccc(C(=O)NCCOCCOCCOCCN=[N+]=[N-])cc3O[B-]2([C@H](CC(C)C)NC(=O)[C@@H](Cc2ccccc2)NC(=O)c2cnccn2)Oc2ccc(OCCOCCOCCOCCN=[N+]=[N-])cc21` (stereo partly shown) [B-complex 9], the IC50 was 7.25 µM with 4T1 and greater than 0.1 µM in series [1] (Homo sapiens).

With `CC1=[N+]2c3ccc(C(=O)NCCOCCOCCOCCn4nnc5c4CCC4C(CC5)[C@@H]4COC(=O)NCCNC(=O)CC[C@H](NC(=O)c4ccc(NCc5cnc6nc(N)[nH]c(=O)c6n5)cc4)C(=O)O)cc3O[B-]2([C@H](CC(C)C)NC(=O)[C@@H](Cc2ccccc2)NC(=O)c2cnccn2)Oc2ccc(OCCOCCOCCOCCn3nnc4c3CC[C@H]3[C@@H](CC4)[C@H]3COC(=O)NCCNC(=O)CC[C@H](NC(=O)c3ccc(NCc4cnc5nc(N)[nH]c(=O)c5n4)cc3)C(=O)O)cc21` (stereo partly shown) [B-complex 10], the IC50 in series [1] was 0.062 µM.

With `[Cl-].[Na+]` [table salt], the LD50 in series [2] was 3000 mg/kg.
